The values below come from patent US20220133835A1, “ANTIDIABETIC COMPOSITION COMPRISING GINGER EXTRACT OBTAINED FROM MICROWAVE-PROCESSED GINGER AND METHOD OF PREVENTING OR TREATING DIABETIS MELLITUS” (priority 2020, published 2022).

“Also recorded” adds a separate entry of the source.

Data set [1] relates to INS-1 cells. The experiment in a line: Glucose stimulated insulin secretion (GSIS) of INS-1 cell. It counts as cell-based, rat. The conditions noted are these: for Stimulation index (SI): insulin secreted at 16.7 mM glucose divided by that at 3.3 mM glucose; for insulin secretion of INS-1 cells: summary in words of Tables 3 and 4. The protocol: Cell line INS-1 (Biohermes, Shanghai, China) is a […] insulinoma species and has insulin secretion ability. INS-1 cells were cultured in RPMI1640 (Cellgro, Manassas, Va., USA) medium supplemented with 10% fetal bovine serum (FBS), 100 units/mL penicillin G, 100 μg/mL streptomycin, 10 mM HEPES, 2 mM L-glutamine, 1 mM sodium pyruvate and 0.05 mM 2-mercapto ethanol under a condition of a temperature of 37° C., 90% air, and 10% CO2. Among the above-mentioned components, reagents not mentioned by the manufacturer were purchased from Gibco BRL, Life Technologies. 5×10^5 cultured INS-1 cells were inoculated in each well of the 12-well plate in the same medium of 2 mL and cultured for 24 hours under the same condition as described in Section (1) INS-1 cell culture to stabilize the cells. Then, 114 mM sodium chloride (NaCl), 4.4 mM potassium chloride (KCl), 1 mM magnesium sulfate (MgSO4), 1.28 mM calcium chloride (CaCl2)), 29.5 mM sodium hydrogen carbonate (NaHCO3), 10 mM HEPES; Gibco BRL Life Technologies), and 0.1% bovine serum albumin (BSA) were mixed, and the cells were washed twice with 2 mL of Krebs-Ringer buffer with a hydrogen ion concentration of pH 7.4. Thereafter, 2 mL of Krebs-Ringer buffer was added to the washed cells and incubated for 1 hour. Then, the ginger extract, each fraction, and each compound were incubated for 30 minutes in 1.8 mL of Krebs-Ringer buffer at a specific concentration. The specific concentrations of the ginger extract and a fraction thereof were set to 1 μg/m L, 2.5 μg/mL, and 5 μg/mL, and the specific concentrations of the single compound were set to 1 μM, 2.5 μM, and 5 μM. 0.2 mL of Krebs-Ringer buffers containing 33 mM and 167 mM glucose were each added to the wells and incubated for 1 hour. Thereafter, after centrifugation at 12,000 revolutions per minute (rpm) for 10 minutes at a temperature of 4° C., the supernatant was taken, and the amount of insulin was measured with a Rat insulin RIA kit (Gentaur Molecular Products, Belgium). The stimulation index (SI) is a value obtained by dividing a value measured at a high glucose concentration, that is, the amount of insulin secreted by stimulation of a 16.7 mM glucose concentration by a value measured at a low glucose concentration, that is, the amount of insulin secreted by stimulation of a 3.3 mM glucose concentration. As a positive control, gliclazide was used at concentrations of 2.5 μM, 5.0 μM, 10 μM, and 20 μM.

For data set [2] the following is noted: through induction of cell defense mechanisms; cited from earlier work.
In the next data set the test system is ICR mice. The data set can be described thus: Oral glucose tolerance test (OGTT). It counts as in vivo, mouse. The conditions noted are these: 100 mg/kg oral 1 hour before glucose 2 g/Kg, caudal vein blood at 0-120 minutes, vs control and unprocessed/6-gingerol group. The protocol: ICR mice were used for OGTT experiments. ICR mice were fasted for 12 hours before the experiment, blood was collected from the caudal vein of mice that had been fasted for 12 hours, and the fasting blood glucose level was measured as the initial blood glucose level. Thereafter, experiments were conducted with a group administered with glucose (2 g/Kg) (control), a group administered with glucose and a raw ginger extract (100 mg/kg, not processed), and a group administered with a microwave-processed ginger product (100 mg/kg, processed). After oral administration for each concentration, glucose was orally administered 1 hour later, and measurement was performed by using a blood glucose meter from the caudal vein at 0, 15, 30, 60, and 120 minutes. FIG. 3 is a graph of results of an oral glucose tolerance test of a ginger extract and a microwave-processed ginger product.
Next, to test the efficacy of a single component of ginger, blood was collected from the caudal vein of mice that had been fasted for 12 hours, and the fasting blood glucose level was measured as the initial blood glucose level. Thereafter, experiments were conducted with a group administered with glucose (2 g/Kg) (control), a group administered with glucose and 6-gingerol (100 mg/kg), and a group administered with glucose and 6-shogaol (100 mg/kg). […]

Data set [3] deals with INS-1 cells. The data set can be described thus: INS-1 cell toxicity (CCK-8 cell viability). To be noted: for Cell viability (%): 24 hours, INS-1 cells, CCK-8; for toxicity against INS-1 cells: summary of Tables 1 and 2, up to 5 μg/mL or 5 μM. Here is the method:
Cell line INS-1 (Biohermes, Shanghai, China) is a […] insulinoma species and has insulin secretion ability. INS-1 cells were cultured in RPMI1640 (Cellgro, Manassas, Va., USA) medium supplemented with 10% fetal bovine serum (FBS), 100 units/mL penicillin G, 100 μg/mL streptomycin, 10 mM HEPES, 2 mM L-glutamine, 1 mM sodium pyruvate and 0.05 mM 2-mercapto ethanol under a condition of a temperature of 37° C., 90% air, and 10% CO2. Among the above-mentioned components, reagents not mentioned by the manufacturer were purchased from Gibco BRL, Life Technologies. The cultured INS-1 cells were inoculated in each well of a 96-well plate in the number of 1×10^4 in a medium of 100 μL and cultured for 24 hours to stabilize the cells. Next, the ginger extract, fraction thereof, and single compounds were added to a specific concentration, followed by culturing for 24 hours. Next, 10 μL of a CCK-8 reagent (Dojindo Laboratories, Japan) was added to each well, followed by culturing at a temperature of 37° C. After 1 hour, cell viability was measured by measuring absorbance at a wavelength of 450 nm on a BIO-TEK (Winooski, Vt., USA) microplate reader. The specific concentrations of the ginger extract and a fraction thereof were set to 1 μg/m L, 2.5 μg/mL, and 5 μg/mL, and the specific concentrations of the single compound were set to 1 μM, 2.5 μM, and 5 μM. Cell viability in Tables 1 and 2 was calculated as follows. Cell viability (%)=A/B×100 A: absorbance of sample to which a reagent is […]

In the case of `CCCCCCC[C@H](O)CC(=O)CCc1ccc(O)c(OC)c1` [[8]-gingerol], the results for the “Stimulation index (SI)” value in the data set on INS-1 cells [1] (1 μM), in the data set with INS-1 cells [1] (2.5 μM) and with INS-1 cells [1] (5 μM) were 1.1 ± 0.0, 1.5 ± 0.0 and 2.1 ± 0.0, respectively. Further, the “insulin secretion of INS-1 cells” value with INS-1 cells [1] is “secreted insulin concentration-dependently”.

Turning to shogaol, the “anticancer activity compared with [6]-gingerol” value in data set [2] is reported as “more than 10 times”.

On to `CCCCC/C=C/C(=O)CCc1ccc(O)c(OC)c1` [[6]-shogaol], for which the results for the “Stimulation index (SI)” value in the data set with INS-1 cells [1] (1 μM), with INS-1 cells [1] (2.5 μM) and in the data set on INS-1 cells [1] (5 μM) were 3.0 ± .0, 3.5 ± 0.1 and 4.8 ± 0.0, respectively. Moreover, in the data set with INS-1 cells [1], the “insulin secretion of INS-1 cells” value is on record as “secreted insulin concentration-dependently; also recorded: promote insulin secretion in INS-1 cells, as compared with other components”. Also, the “increase in blood glucose level” value with ICR mice is “significantly reduced”. Also, the “Cell viability (%)” value in the data set on INS-1 cells [3] (1 μM) came out at 101.1 ± 0.4%; in the data set on INS-1 cells [3] (2.5 μM) it was 101.8 ± 0.7%; in the data set on INS-1 cells [3] (5 μM), 101.2 ± 0.2%. For the same compound, the “toxicity against INS-1 cells” value in the data set with INS-1 cells [3] is given as “not to exhibit toxicity”.

With `CCCCCCCCC/C=C/C(=O)CCc1ccc(O)c(OC)c1` [[10]-shogaol], the “Stimulation index (SI)” value in the data set on INS-1 cells [1] (1 μM) is reported as 1.9 ± 0.0; in the data set with INS-1 cells [1] (2.5 μM), 1.4 ± 0.0; in the data set on INS-1 cells [1] (5 μM) it was 1.4 ± 0.1. Also, the “insulin secretion of INS-1 cells” value in the data set with INS-1 cells [1] is “secreted insulin concentration-dependently”. Besides, the entries for the “Cell viability (%)” value in the data set on INS-1 cells [3] (1 μM), in the data set with INS-1 cells [3] (2.5 μM) and in the data set on INS-1 cells [3] (5 μM) were 101.9 ± 2.2%, 99.8 ± 3.9% and 99.6 ± 3.3%, respectively. The “toxicity against INS-1 cells” value in the data set on INS-1 cells [3] is reported as “not to exhibit toxicity”.

For `CCCCCCC/C=C/C(=O)CCc1ccc(O)c(OC)c1` [[8]-shogaol], the “Stimulation index (SI)” value in the data set on INS-1 cells [1] (1 μM) is reported as 1.3 ± 0.1; in the data set with INS-1 cells [1] (2.5 μM), 1.5 ± 0.1; with INS-1 cells [1] (5 μM), 1.8 ± 0.1. Besides, in the data set with INS-1 cells [1], the “insulin secretion of INS-1 cells” value was “secreted insulin concentration-dependently”. Further, the figures for the “Cell viability (%)” value in the data set on INS-1 cells [3] (1 μM), in the data set on INS-1 cells [3] (2.5 μM) and with INS-1 cells [3] (5 μM) were 94.0 ± 2.6%, 96.3 ± 1.9% and 92.4 ± 1.7%, respectively. In the data set with INS-1 cells [3], the “toxicity against INS-1 cells” value was “not to exhibit toxicity”.

As to `CCCCCCCCC[C@H](O)CC(=O)CCc1ccc(O)c(OC)c1` [[10]-gingerol], the “Stimulation index (SI)” value in the data set with INS-1 cells [1] (1 μM) is on record as 1.7 ± 0.2; in the data set on INS-1 cells [1] (2.5 μM), 1.7 ± 0.1; in the data set on INS-1 cells [1] (5 μM), 1.5 ± 0.1. Moreover, in the data set with INS-1 cells [1], the “insulin secretion of INS-1 cells” value is recorded as “secreted insulin concentration-dependently”. The “Cell viability (%)” value in the data set with INS-1 cells [3] (1 μM) is reported as 99.3 ± 1.6%; in the data set on INS-1 cells [3] (2.5 μM) it was 100.6 ± 3.3%; in the data set on INS-1 cells [3] (5 μM), 100.7 ± 3.5%. In addition, the “toxicity against INS-1 cells” value in the data set with INS-1 cells [3] was “not to exhibit toxicity”.

`Cc1ccc(S(=O)(=O)NC(=O)NN2CC3CCCC3C2)cc1` (stereo not shown) [Glyclazide, gliclazide, reference compound]: the results for the “Stimulation index (SI)” value in the data set with INS-1 cells [1] (1 μM), in the data set with INS-1 cells [1] (2.5 μM) and in the data set on INS-1 cells [1] (5 μM) were 1.3 ± 0.0, 1.9 ± 0.1 and 3.0 ± 0.1, respectively. Moreover, the “Cell viability (%)” value with INS-1 cells [3] (1 μM) is recorded as 99.7 ± 0.2%; in the data set with INS-1 cells [3] (2.5 μM), 96.3 ± 0.9%; in the data set with INS-1 cells [3] (5 μM), 91.1 ± 1.4%.

In the case of `CCCCC[C@H](O)CC(=O)CCc1ccc(O)c(OC)c1` [[6]-gingerol], the “Stimulation index (SI)” value worked out at 2.4 ± 0.0 in the data set with INS-1 cells [1] (1 μM), 2.2 ± 0.1 in the data set with INS-1 cells [1] (2.5 μM) and 2.3 ± 0.1 with INS-1 cells [1] (5 μM). Besides, the “insulin secretion of INS-1 cells” value in the data set on INS-1 cells [1] is reported as “secreted insulin concentration-dependently”. In addition, the “Cell viability (%)” value in the data set with INS-1 cells [3] (1 μM) is given as 98.1 ± 2.7%; in the data set with INS-1 cells [3] (2.5 μM), 98.7 ± 2.3%; in the data set on INS-1 cells [3] (5 μM) it was 98.2 ± 3.5%. For the same compound, the “toxicity against INS-1 cells” value in the data set with INS-1 cells [3] is given as “not to exhibit toxicity”.
